Experimental data published in patent publication US20190284136A1, “INDOLINE DERIVATIVES” (ViiV HEALTHCARE UK LIMITED, priority 2016, published 2019).

The compounds below were run on HIV (assay: Table 1 IC50 of the examples (assay method not given; patent concerns inhibiting HIV replication)). Settings: not given.
Format: cell-based

For `COc1c(F)cccc1C(=O)N1CCc2c1cc(C)c([C@H](OC(C)(C)C)C(=O)O)c2-c1cc(F)c2c(c1C)CCCO2` (atropisomer, axis not shown; (P)) [Example 23, (S)-2-(tert-Butoxy)-2-((P)-1-(3-fluoro-2-methoxybenzoyl)-4-(8-fluoro-5-methylchroman-6-yl)-6-methylindolin-5-yl)acetic acid], which IC50 is on record?
The IC50 was 95 nM.

Same assay, conditions: Human immunodeficiency virus 1

Which IC50 does the source give for `Cc1ccc(-c2c3c(cc(C)c2C(OC(C)(C)C)C(=O)O)N(C(=O)N2CCCCC2)CC3)cc1` (stereo not shown) [Example 6, 2-(tert-Butoxy)-2-(6-methyl-1-(piperidine-1-carbonyl)-4-(p-tolyl)indolin-5-yl)acetic acid] here?
Its IC50 is 369 nM.

How did the IC50 turn out when `Cc1ccc(C(=O)N2CCc3c2cc(C)c([C@H](OC(C)(C)C)C(=O)O)c3-c2cc(F)c3c(c2C)CCCO3)cc1C(F)(F)F` (atropisomer, axis not shown) [Example 146, (S)-2-(tert-Butoxy)-2-((R)-4-(8-fluoro-5-methylchroman-6-yl)-6-methyl-1-(4-methyl-3-(trifluoromethyl)benzoyl)indolin-5-yl)acetic acid] was run?
The IC50 was 5 nM.

For `COc1c(F)cccc1C(=O)N1CCc2c1cc(C)c([C@H](OC(C)(C)C)C(=O)O)c2-c1ccc(C)cc1` [Example 27, (S)-2-(tert-Butoxy)-2-(1-(3-fluoro-2-methoxybenzoyl)-6-methyl-4-(p-tolyl)indolin-5-yl)acetic acid], which IC50 is on record?
Its IC50 is 7 nM.

With `Cc1ccc(-c2c3c(cc(C)c2C(OC(C)(C)C)C(=O)O)N(Cc2ccc(F)c(F)c2)CCC3)cc1` (stereo not shown) [Example 212, 2-(tert-Butoxy)-2-(1-(3,4-difluorobenzyl)-7-methyl-5-(p-tolyl)-1,2,3,4-tetrahydroquinolin-6-yl)acetic acid] as the compound, how does the IC50 read?
Its IC50 is 1030 nM.

With `COc1cc(OC)cc(C(=O)N2CCc3c2cc(C)c([C@H](OC(C)(C)C)C(=O)O)c3-c2cc(F)c3c(c2C)CCCO3)c1` (atropisomer, axis not shown) [Example 63, (S)-2-(tert-Butoxy)-2-((R)-1-(3,5-dimethoxybenzoyl)-4-(8-fluoro-5-methylchroman-6-yl)-6-methylindolin-5-yl)acetic acid] as the compound, how does the IC50 read?
The IC50 was 4 nM.

How did the IC50 turn out when `COc1ccc(C(=O)N2CCc3c2cc(C)c([C@H](OC(C)(C)C)C(=O)O)c3-c2cc(OC)c3c(c2C)CCCO3)cc1C` (atropisomer, axis not shown) [Example 192, (S)-2-(tert-Butoxy)-2-((R)-1-(4-methoxy-3-methylbenzoyl)-4-(8-methoxy-5-methylchroman-6-yl)-6-methylindolin-5-yl)acetic acid] was run?
Its IC50 is 5 nM.

How did the IC50 turn out when `Cc1cc2c(c(-c3cc(F)c4c(c3C)CCCO4)c1[C@H](OC(C)(C)C)C(=O)O)CCN2C(=O)c1cccc(Cl)c1` (atropisomer, axis not shown) [Example 52, (S)-2-(tert-Butoxy)-2-((R)-1-(3-chlorobenzoyl)-4-(8-fluoro-5-methylchroman-6-yl)-6-methylindolin-5-yl)acetic acid] was run?
The IC50 was 2 nM.

`Cc1cc2c(c(-c3cc(F)c4c(c3C)CCCO4)c1[C@H](OC(C)(C)C)C(=O)O)CCN2C(=O)C1CCC1` (atropisomer, axis not shown) [Example 161, (S)-2-(tert-Butoxy)-2-((R)-1-(cyclobutanecarbonyl)-4-(8-fluoro-5-methylchroman-6-yl)-6-methylindolin-5-yl)acetic acid] was tested. Which IC50 did it give?
The IC50 was 81 nM.

Which IC50 does the source give for `COc1ncccc1C(=O)N1CCc2c1cc(C)c([C@H](OC(C)(C)C)C(=O)O)c2-c1cc(F)c2c(c1C)CCCO2` (atropisomer, axis not shown) [Example 90, (S)-2-(tert-Butoxy)-2-((R)-4-(8-fluoro-5-methylchroman-6-yl)-1-(2-methoxynicotinoyl)-6-methylindolin-5-yl)acetic acid] here?
The IC50 was 5 nM.

`COc1cc(-c2c3c(cc(C)c2[C@H](OC(C)(C)C)C(=O)O)N(C(=O)c2ccc(C)nc2)CC3)c(C)c2c1OCCC2` (atropisomer, axis not shown) [Example 193, (S)-2-(tert-Butoxy)-2-((R)-4-(8-methoxy-5-methylchroman-6-yl)-6-methyl-1-(6-methylnicotinoyl)indolin-5-yl)acetic acid] was tested. Which IC50 did it give?
The IC50 was 9 nM.

`Cc1cccc(C(=O)N2CCc3c2cc(C)c([C@H](OC(C)(C)C)C(=O)O)c3-c2cc(F)c3c(c2C)CCCO3)c1F` (atropisomer, axis not shown) [Example 118, (S)-2-(tert-Butoxy)-2-((R)-1-(2-fluoro-3-methylbenzoyl)-4-(8-fluoro-5-methylchroman-6-yl)-6-methylindolin-5-yl)acetic acid] was tested. Which IC50 did it give?
The IC50 was 5 nM.

`Cc1ccc(-c2c3c(cc(C)c2[C@H](OC(C)(C)C)C(=O)O)N(C(=O)c2ccc(F)cc2)CC3)cc1` [Example 14, (S)-2-(tert-Butoxy)-2-(1-(4-fluorobenzoyl)-6-methyl-4-(p-tolyl)indolin-5-yl)acetic acid] was tested. Which IC50 did it give?
The IC50 was 7 nM.

`Cc1cc(Cl)ccc1C(=O)N1CCc2c1cc(C)c([C@H](OC(C)(C)C)C(=O)O)c2-c1cc(F)c2c(c1C)CCCO2` (atropisomer, axis not shown) [Example 47, (S)-2-(tert-Butoxy)-2-((R)-1-(4-chloro-2-methylbenzoyl)-4-(8-fluoro-5-methylchroman-6-yl)-6-methylindolin-5-yl)acetic acid] was tested. Which IC50 did it give?
Its IC50 is 4 nM.

Which IC50 does the source give for `Cc1cc2c(c(-c3cc(F)c4c(c3C)CCCO4)c1[C@H](OC(C)(C)C)C(=O)O)CCN2C(=O)c1cccc(Cl)c1C` (atropisomer, axis not shown) [Example 66, (S)-2-(tert-Butoxy)-2-((R)-1-(3-chloro-2-methylbenzoyl)-4-(8-fluoro-5-methylchroman-6-yl)-6-methylindolin-5-yl)acetic acid] here?
The IC50 was 6 nM.

`COc1ccc(C(=O)N2CCc3c2cc(C)c([C@H](OC(C)(C)C)C(=O)O)c3-c2cc(F)c3c(c2C)CCCO3)c(OC)c1OC` (atropisomer, axis not shown) [Example 126, (S)-2-(tert-Butoxy)-2-((R)-4-(8-fluoro-5-methylchroman-6-yl)-6-methyl-1-(2,3,4-trimethoxybenzoyl)indolin-5-yl)acetic acid] was tested. Which IC50 did it give?
Its IC50 is 5 nM.

Which IC50 does the source give for `Cc1cc2c(c(-c3cc(F)c4c(c3C)CCCO4)c1[C@H](OC(C)(C)C)C(=O)O)CCN2C(=O)C1CCOCC1` (atropisomer, axis not shown) [Example 65, (S)-2-(tert-Butoxy)-2-((R)-4-(8-fluoro-5-methylchroman-6-yl)-6-methyl-1-(tetrahydro-2H-pyran-4-carbonyl)indolin-5-yl)acetic acid] here?
Its IC50 is 378 nM.

How did the IC50 turn out when `Cc1cc2c(c(-c3cc(F)c4c(c3C)CCCO4)c1[C@H](OC(C)(C)C)C(=O)O)CCN2C(=O)c1cccc2c1OCCC2` (atropisomer, axis not shown) [Example 166, (S)-2-(tert-butoxy)-2-((R)-1-(chromane-8-carbonyl)-4-(8-fluoro-5-methylchroman-6-yl)-6-methylindolin-5-yl)acetic acid] was run?
The IC50 was 4 nM.

For `COc1ccc(C(=O)N2CCc3c2cc(C)c([C@H](OC(C)(C)C)C(=O)O)c3-c2ccc3c(c2C)CCCO3)cc1C` (atropisomer, axis not shown) [Example 190, (S)-2-(tert-Butoxy)-2-((R)-1-(4-methoxy-3-methylbenzoyl)-6-methyl-4-(5-methylchroman-6-yl)indolin-5-yl)acetic acid], which IC50 is on record?
Its IC50 is 124 nM.
